Measured values from patent US9586953B2, “Prodrugs of amino quinazoline kinase inhibitor” (GlaxoSmithKline Intellectual Property Development Limited, priority 2012, dated 2017).

Tests used:
[1] = In vivo Assay (II): half life of the prodrug after oral administration in minipig; design: species or system male Göttingen minipigs; details: male, Göttingen, whole blood, minipig (n=3), orally administered at a dose equivalent to 2 mg/kg of the parent ethanol compound, LC/MS, read-out: half life (T1/2)
Experimental: (§1) 2-((4-(Benzo[d]thiazol-5-ylamino)-6-(tert-butylsulfonyl)quinazolin-7-yl)oxy)ethyl dihydrogen phosphate was orally administered at a dose equivalent to 2 mg/kg of 2-((4-(benzo[d]thiazol-5-ylamino)-6-(tert-butylsulfonyl)quinazolin-7-yl)oxy)ethanol to a series of test animals. Rats (n=2) and dogs (n=3) were administered 2-((4-(benzo[d]thiazol-5-ylamino)-6-(tert-butylsulfonyl)quinazolin-7-yl)oxy)ethyl dihydrogen phosphate, whereas minipigs (male Göttingen minipigs (n=3)) were administered 2-((4-(benzo[d]thiazol-5-ylamino)-6-(tert-butylsulfonyl)quinazolin-7-yl)oxy)ethyl disodium phosphate. Blood samples were taken from each test animal at intervals between 0 to 24 hrs (25 hrs in dog) after administration. The concentration 2-((4-(benzo[d]thiazol-5-ylamino)-6-(tert-butylsulfonyl)quinazolin-7-yl)oxy)ethanol in each sample was determined by LC/MS. The average blood concentrations of 2-((4-(benzo[d]thiazol-5-ylamino)-6-(tert-butylsulfonyl)quinazolin-7-yl)oxy)ethanol in each test species, following oral administration of 2-((4-(benzo[d]thiazol-5-ylamino)-6-(tert-butylsulfonyl)quinazolin-7-yl)oxy)ethyl dihydrogen phosphate or disodium phosphate are shown in FIG. 4.

[2] = In vivo Assay (II): half life of the prodrug after oral administration in rat; details: whole blood, rat (n=2), orally administered at a dose equivalent to 2 mg/kg of the parent ethanol compound, LC/MS, read-out: half life (T1/2)
Experimental: as §1

[3] = In vivo Assay (II): half life of the prodrug after oral administration in dog; details: whole blood, dog (n=3), orally administered at a dose equivalent to 2 mg/kg of the parent ethanol compound, LC/MS, read-out: half life (T1/2)
Experimental: as §1

half-life [1] [min] | half-life [2] [min] | half-life [3] [min] | SMILES
26 |  |  | CC(C)(C)S(=O)(=O)c1cc2c(Nc3ccc4scnc4c3)ncnc2cc1OCCOP(=O)(O)O [Example 2, 2-((4-(Benzo[d]thiazol-5-ylamino)-6-(tert-butylsulfonyl)quinazolin-7-yl)oxy)ethyl disodium phosphate]
 | 15 | 5 | CC(C)(C)S(=O)(=O)c1cc2c(Nc3ccc4scnc4c3)ncnc2cc1OCCOP(=O)(O)O [Example 1, 2-((4-(Benzo[d]thiazol-5-ylamino)-6-(tert-butylsulfonyl)quinazolin-7-yl)oxy)ethyl dihydrogen phosphate]
